This is an account of results in patent US20030162777A1, “Novel N-acylated heterocycles” (Recordati S.A., priority 2001, published 2003).

In general, inhibition refers to the relative decrease from the control value, in per cent. For orientation: Ki means the equilibrium dissociation constant of an inhibitor or competing ligand from its target. One may read the ED50 as the dose at which the effect has come halfway, by size or by number of responders.

Each structure is given as a SMILES string. Where only a bound is given, the exact number is not on record here.

For one test, the target named is T1, 5-HT1A receptors (Rattus norvegicus, UniProt P19327).
T1 construct: from tissue; host or cells: whole animal: male Sprague-Dawley rats (post-synaptic 5-HT1A receptors)
T1 sequence (P19327 1-422): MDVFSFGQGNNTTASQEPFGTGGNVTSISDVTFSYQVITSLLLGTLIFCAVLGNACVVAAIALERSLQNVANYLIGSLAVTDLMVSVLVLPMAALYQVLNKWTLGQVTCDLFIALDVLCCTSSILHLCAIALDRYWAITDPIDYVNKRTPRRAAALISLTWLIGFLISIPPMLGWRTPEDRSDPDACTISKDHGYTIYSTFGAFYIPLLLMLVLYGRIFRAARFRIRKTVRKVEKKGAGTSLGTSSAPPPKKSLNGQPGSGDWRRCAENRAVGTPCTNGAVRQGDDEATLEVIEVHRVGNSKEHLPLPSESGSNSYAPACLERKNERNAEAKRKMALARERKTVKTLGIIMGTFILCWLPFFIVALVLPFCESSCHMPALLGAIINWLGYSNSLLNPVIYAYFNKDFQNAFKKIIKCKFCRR
Briefly: Inhibition of stereotypy (rhythmic forepaw treading) induced by 8-OH-DPAT in rats (post-synaptic antagonism). It is filed as in vivo. The following applies: for inhibition at 1 mg/kg / inhibition at 10 mg/kg: rat; for inhibition at 10 mg/kg: 10 mg/kg p.o. How it is done:
The inhibitory effect of 5-HT1A-receptor antagonists on stereotyped forepaw treading induced in rats by subcutaneous injection of 8-OH-DPAT was evaluated by the method of Tricklebank (Tricklebanket al., Eur. J. Pharmacol., 117: 15, 1985) with minor modifications as described below.
Male Sprague-Dawley rats [Crl: CD° (SD) BR] weighing 150-175 g from Charles River Italia were used. The animals were housed with free access to food and water and maintained on a forced 12-hour-light/12-hour-dark cycle at 22-24° C. of temperature. On the day of the experiment, the rats were placed singly in clear plastic containers, 10-15 minutes before administration of the vehicle or compounds to be tested. For evaluation of antagonistic activity after oral administration, the compounds were administered 0.5, 1 and 4 hours before induction of stereotypy by 8-OH-DPAT (1 mg/kg subcutaneously). Observation sessions lasted 30 seconds and began 3 minutes after 8-OH-DPAT treatment and were repeated every 3 minutes over a period of 15 minutes.
The appearance of the symptom induced by postsynaptic stimulation of 5-HT1A receptors was noted, and the intensity was scored using an intensity scale in which: 0=absent, 1=equivocal, 2=present and 3=intense. Behavioural scores for treated rats were accumulated throughout the observation time (5 observation periods) and expressed as mean values of 4 rats/dose. Change in mean values of treated animals in comparison with control (vehicle) group, expressed as per-cent inhibition, was used in order to quantify the antagonistic activity.

Test [1] deals with T2, human 5HT1A-serotonergic receptor (Homo sapiens, UniProt P08908).
T2 construct: expressed in transfected cells; host or cells: HeLa (human cell line), stably transfected; cell membranes used
T2 sequence (P08908 1-422): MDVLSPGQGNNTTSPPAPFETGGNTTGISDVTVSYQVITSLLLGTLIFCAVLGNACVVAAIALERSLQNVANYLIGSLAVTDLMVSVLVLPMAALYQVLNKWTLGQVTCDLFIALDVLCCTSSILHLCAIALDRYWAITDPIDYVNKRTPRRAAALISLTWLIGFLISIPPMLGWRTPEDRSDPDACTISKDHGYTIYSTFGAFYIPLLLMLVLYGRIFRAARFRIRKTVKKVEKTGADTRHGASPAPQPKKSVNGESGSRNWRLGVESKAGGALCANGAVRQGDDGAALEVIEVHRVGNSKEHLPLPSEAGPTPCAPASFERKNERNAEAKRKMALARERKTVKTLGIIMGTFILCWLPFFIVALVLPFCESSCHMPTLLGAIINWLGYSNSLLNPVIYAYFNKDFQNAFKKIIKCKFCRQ
Briefly: Radioligand binding to recombinant 5-HT1A receptors. The following applies: [3H]8-OH-DPAT 1 nM, membranes of HeLa cells with human 5-HT1A receptor; Ki from IC50 by Cheng & Prusoff; read-out: Binding affinity for 5HT1A receptors, Ki. In outline: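 Membranes from HeLa cells stably expressing human 5-HT1A incubated 30 min at 30 °C with 1 nM [3H]8-OH-DPAT and compound in 50 mM Tris-HCl pH 7.4, 2.5 mM MgCl2, […] pargyline. Nonspecific binding defined with 10 μM 5-HT; filtration readout, IC50 converted to Ki via Cheng–Prusoff.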

A further test concerns anaesthetised rats. Briefly: Effects on rhythmic bladder-voiding contractions induced by bladder filling in anaesthetised rats. The settings on record: intravenous administration, urethane-anaesthetised rats. It is filed as in vivo, rat. As for the experimental part:
Female Sprague-Dawley rats weighing 225-275 g (Crl: CDo Br, Charles River Italia) were used. The animals were housed with free access to food and water and maintained on a forced 12-hour alternating light-dark cycle at 22-24° C. for at least one week, except during the experiment. The activity on rhythmic bladder voiding contractions was evaluated according to the method of Dray (Dray J., Pharmacol. Methods, 13:157, 1985), with some modifications as in Guarneri (Guarneri, Pharmacol. Res. 27:173, 1993). Briefly, the rats were anaesthetised by subcutaneous injection of 1.25 g/kg (5 ml/kg) urethane, after which the urinary bladder was catheterised via the urethra using PE 50 polyethylene tubing filled with physiological saline. The catheter was tied in place with a ligature around the external urethral orifice and was connected to conventional pressure transducers (Statham P23 ID/P23 XL). […] The bladder was then filled via the recording catheter by incremental volumes of warm (37° C.) saline until reflex bladder-voiding contractions occurred (usually 0.8-1.5 ml). For intravenous injection of bioactive compounds, PE 50 polyethylene tubing filled with physiological saline was inserted into the jugular vein.
From the cystometrogram, the number of contractions recorded 15 minutes before (basal values) and after treatment, as well as the mean amplitude of these contractions (mean height of the peaks in mmHg), was evaluated.
Since most compounds produced an effect that was relatively rapid in onset and led to a complete cessation of bladder contractions, bioactivity was conveniently estimated by measuring the duration of bladder quiescence (i.e. the length of the time during which no contractions occurred). The number of tested animals showing a reduction in the number of contractions higher than 30% of that observed in the basal period was recorded too.
The extrapolated doses which induced a reduction in the number of contractions greater than 30% in 50% of the treated rats (ED50) were evaluated by the method of Bliss (Bliss C. I., Quart J. Pharm. Pharmacol. 11, 192-216, 1938).

The mark [2] stands for this setting: 0.5 h before 8-OH-DPAT (1 mg/kg s.c.).
The mark [3] stands for this setting: 1 h before 8-OH-DPAT (1 mg/kg s.c.).
Setting [4] is: 4 h before 8-OH-DPAT (1 mg/kg s.c.).

On to `O=C(C1CCCCC1)N1c2ccccc2CCC1CN1CCN(c2cccc3[nH]ccc23)CC1` (single isomer, unassigned; (-)) [(−)-1, (−)-1-(1-Cyclohexanecarbonyl-1,2,3,4-tetrahydroquinoline-2-ylmethyl)-4-(4-indolyl)piperazine], for which, on 5-HT1A receptors (1 mg/kg p.o., rats), the “post-synaptic 5-HT1A-receptor antagonist activity (in words)” value is on record as “devoid of activity”. In addition, the inhibition at 1 mg/kg was found to be 19% against 5-HT1A receptors (1 mg/kg p.o., 0.5 h before 8-OH-DPAT (1 mg/kg s.c.)); 5% at 5-HT1A receptors (1 mg/kg p.o., 1 h before 8-OH-DPAT (1 mg/kg s.c.)); 9% on 5-HT1A receptors (1 mg/kg p.o., 4 h before 8-OH-DPAT (1 mg/kg s.c.)).

Consider `O=C(C1CCCCC1)N1c2ccc(F)cc2CCC1CN1CCN(c2cccc3[nH]ccc23)CC1` (stereo not drawn) [Example 18, 1-(1-Cyclohexanecarbonyl-6-fluoro-1,2,3,4-tetrahydroquinoline-2-ylmethyl)-4-(4-indolyl)piperazine], for which the inhibition at 10 mg/kg at 5-HT1A receptors (setting [2]) is 98%; against 5-HT1A receptors (setting [3]), 92%; against 5-HT1A receptors (setting [4]), 92%. For the same compound, the Ki in test [1] is 2.8 nM.

In the case of `O=C(C1CC=CCC1)N1c2ccccc2CCC1CN1CCN(c2cccc3[nH]ccc23)CC1` (stereo not drawn) [Example 24A1, 1-(1-Cyclohex-3-enylcarbonyl-1,2,3,4-tetrahydroquinoline-2-ylmethyl)-4-(4-indolyl)piperazine], the inhibition at 10 mg/kg at 5-HT1A receptors (setting [2]), on 5-HT1A receptors (setting [3]) and on 5-HT1A receptors (setting [4]) was 100% each time. Besides, the Ki in test [1] worked out at 2.6 nM.

For `O=C(C1CCCC1)N1c2ccccc2CCC1CN1CCN(c2cccc3[nH]ccc23)CC1` (stereo not drawn) [Example 24A3, 1-(1-Cyclopentanecarbonyl-1,2,3,4-tetrahydroquinoline-2-ylmethyl)-4-(4-indolyl)piperazine], the inhibition at 10 mg/kg at 5-HT1A receptors (setting [2]) stood at 100%; against 5-HT1A receptors (setting [3]), 93%; at 5-HT1A receptors (setting [4]), 100%. In test [1], the Ki is 5.4 nM.

On to `Cc1[nH]c2cccc(N3CCN(CC4CCc5ccccc5N4C(=O)C4CCCCC4)CC3)c2c1C` (stereo not drawn) [Example 35A13, 1-(1-Cyclohexanecarbonyl-1,2,3,4-tetrahydroquinoline-2-ylmethyl)-4-(2,3-dimethyl-4-indolyl)piperazine], for which the inhibition at 10 mg/kg at 5-HT1A receptors (setting [3]) was determined as 95%; against 5-HT1A receptors (setting [4]), 100%. Besides, in test [1], the Ki came out at 4 nM.

On to `O=S(=O)(Cc1ccccc1)N1c2ccccc2CCC1CN1CCN(c2cccc3c2OCCO3)CC1` (stereo not drawn) [Example 76A11, 1-(2,3-Dihydrobenzo[1,4]dioxin-5-yl)-4-(1-phenylmethanesulphonyl-1,2,3,4-tetrahydroquinolin-2-ylmethyl)piperazine], for which, in test [1], the Ki is 4.5 nM.

Consider `Cc1ccccc1NC(=O)N1c2ccccc2CCC1CN1CCN(c2cccc3c2OCCO3)CC1` (stereo not drawn) [Example 76A12, 1-(2,3-Dihydrobenzo[1,4]dioxin-5-yl)-4-[1-(2-methylphenylaminocarbonyl)-1,2,3,4-tetrahydroquinolin-2-ylmethyl]piperazine], for which the Ki in test [1] came to 8 nM.

Take `CC(C)(C)NC(=O)N1c2ccccc2CCC1CN1CCN(c2cccc3c2OCCO3)CC1` (stereo not drawn) [Example 76A13, 1-(2,3-Dihydrobenzo[1,4]dioxin-5-yl)-4-[1-(1,1-dimethylethylaminocarbonyl)-1,2,3,4-tetrahydroquinolin-2-ylmethyl]piperazine]: in test [1], the inhibition constant (Ki) amounted to 2.3 nM.

Consider `CC(=O)N1CCC(C(=O)N2c3ccccc3CCC2CN2CCN(c3cccc4c3OCCO4)CC2)CC1` (stereo not drawn) [Example 76A15, 1-[1-(1-acetyl-4-piperidinecarbonyl)-1,2,3,4-tetrahydroquinolin-2-ylmethyl]-4-(2,3-dihydrobenzo[1,4]dioxin-5-yl)piperazine], for which, in test [1], the Ki came to 8.1 nM.

For the compound `COc1ccccc1OCCN(C)CC1CCc2ccccc2N1C(=O)CC(C)(C)C` (stereo not drawn) [Example 77A1, N-[1-(3,3-Dimethylbutanoyl)-1,2,3,4-tetrahydroquinolin-2-ylmethyl]-N-[2-(2-methoxyphenoxy)ethyl]methylamine], in test [1], the Ki was 24.2 nM.

`COc1ccc(C(=O)N2c3ccccc3CCC2CN(C)CCOc2ccccc2OC)cc1` (stereo not drawn) [Example 77A5, N-[1-(4-Methoxybenzoyl)-1,2,3,4-tetrahydroquinolin-2-ylmethyl]-N-[2-(2-methoxyphenoxy)ethyl]methylamine]: the Ki in test [1] is 13.1 nM.

Turning to `O=C(C1CCCCC1)N1c2ccccc2CCC1CN1CCN(c2ccccc2OS(=O)(=O)C(F)(F)F)CC1` (stereo not drawn) [Example 79, 1-(1-Cyclohexanecarbonyl-1,2,3,4-tetrahydroquinoline-2-ylmethyl)-4-(2-triluoromethanesulphonyloxyphenyl)piperazine], the Ki in test [1] amounted to 4.5 nM.

Turning to `COc1cc(F)ccc1N1CCN(CC2CCc3cc(N)ccc3N2C(=O)C2CCCCC2)CC1` (stereo not drawn) [Example 85, 1-(6-Amino-1-cyclohexanecarbonyl-1,2,3,4-tetrahydroquinoline-2-ylmethyl)-4-(4-fluoro-2-methoxyphenyl)piperazine], the Ki in test [1] came to 41.2 nM.

Regarding `COc1cc(C)ccc1N1CCN(CC2CCc3ccccc3N2C(=O)C2CCCCC2)CC1` (stereo not drawn) [Example 86A, 1-(1-Cyclohexanecarbonyl-1,2,3,4-tetrahydroquinoline-2-ylmethyl)-4-(2-methoxy-4-methylphenyl)piperazine], in test [1], the Ki came out at 18.2 nM.

Turning to `Cc1c(-c2ccccc2)oc2c(C(=O)OCCN3CCCCC3)cccc2c1=O` [Flavoxate, flavoxate, reference compound], the ED50 in the test on anaesthetised rats (Rattus norvegicus, read-out: ED50 frequency (extrapolated dose inducing a reduction of the number of contractions >30% in 50% of treated rats)) was 2.65 mg/kg. Besides, in the test with anaesthetised rats, the “ED10 min (extrapolated dose inducing 10 minutes of disappearance of the contractions)” value is above 10 mg/kg.
